Columns and labels:
[1] = test system: c-MYC (DNA, G4) TGAGGGTGGGTAGGGTGGGTAA; experiment: fluorescence lifetime; conditions: 100 mM LiCl; 10 mM Tris-HCl pH 7.4; lifetime 1.3 ns lower than in K+
[2] = test system: TRF2 (RNA, G4) CGGGAGGGCGGGGAGGGC; experiment: fluorescence lifetime; conditions: 100 mM KCl; 10 mM Tris-HCl pH 7.4; 2 µM TOR-G4; lifetime rises with G4 RNA in totRNA

COc1ccc2c(c1)N(C)C(=Cc1cc(/C=C/c3ccc(N(C)C)cc3)[n+](C)c3ccccc13)S2
binding [1]: yes | binding [2]: yes

Source: paper PMC10786036 (2023)
